According to patent US12590099B2, “Inhibitors of histone deacetylase useful for the treatment or prevention of HIV infection” (Merck Sharp & Dohme LLC, priority 2018, dated 2026):
Where two headings read alike, the source gives them in different places.

What was measured:
KARN cells (Jurkat 2C4) = test: cells; assay type: cell-based; conditions: luciferase induction, 100% = 2 μM SAHA
Experimental: KARN cells (Jurkat 2C4) were licensed from the laboratory of Dr. John Karn, Case Western Reserve University, School of Medicine. […] An atmosphere of 5% CO2 and 90% humidity was used for all culture work.
Day 1: After the 3-4 day growth period, the cells were transferred from the T175 flask to a 50 ml conical tube and gently pelleted at 1000 rpm for 5 minutes. […] These flasks were returned to the incubator.
Day 2: Cell Preparation: The next day, the cells were transferred from each T175 flask to an individual 50 ml conical tube and gently pelleted at 1000 rpm for 5 minutes. The cells were gently resuspended in assay media (30 ml) and pelleted again. […] The cells were counted using the ViCell (Beckman Coulter) and diluted as necessary. […] The plates were covered and returned to the incubator prior to compound addition.
The reference compounds, DMSO and SAHA were then added to the compound plate. […] The final high concentration for SAHA and the test compounds in the assays was 40 μM. The final DMSO concentration in all wells was 0.4%. The minimal induction reference compound used was DMSO and the maximal induction reference compound used was SAHA (2 μM final concentration in the assay).
Day 3: The luciferase detection reagent was prepared by transferring the contents of one bottle of Steady-Glo buffer to one bottle of Steady-Glo aubstrate (Steady-Glo Luciferase Assay System, Promega, catalog number E2520), followed by gently mixing until the substrate was thoroughly dissolved and the solution was equilibrated to room temperature. […] The Steady-Glo Reagent was added to the plates (30 μl/well), which were then covered with a black lid and incubated for 10 minutes at room temperature. The plates were then read for luminescence on an Envision (Perkin Elmer) using the ultrasensitive mode (US LUM), […] and 384-well aperture. Luminescence counts in the DMSO reference wells were considered as 0% induction, while those in the 2 μM SAHA reference wells were considered as 100% induction. Dose response curves were plotted as test compound concentration (X-axis) vs. percent activation (Y-axis) using a 4-parameter fit based on the Levenberg-Marquardt algorithm.

Recombinant human HDAC8 = biological target: T1, Recombinant human HDAC8 (Homo sapiens, UniProt Q9BY41); test: Human HDAC enzyme inhibitor Fluor-de-Lys assay, HDAC8; assay type: biochemical; conditions: recombinant human HDAC8, Fluor-de-Lys assay
T1 construct: purchased Enzo Life Sciences BML-SE145-0100
T1 sequence (Q9BY41 1-377): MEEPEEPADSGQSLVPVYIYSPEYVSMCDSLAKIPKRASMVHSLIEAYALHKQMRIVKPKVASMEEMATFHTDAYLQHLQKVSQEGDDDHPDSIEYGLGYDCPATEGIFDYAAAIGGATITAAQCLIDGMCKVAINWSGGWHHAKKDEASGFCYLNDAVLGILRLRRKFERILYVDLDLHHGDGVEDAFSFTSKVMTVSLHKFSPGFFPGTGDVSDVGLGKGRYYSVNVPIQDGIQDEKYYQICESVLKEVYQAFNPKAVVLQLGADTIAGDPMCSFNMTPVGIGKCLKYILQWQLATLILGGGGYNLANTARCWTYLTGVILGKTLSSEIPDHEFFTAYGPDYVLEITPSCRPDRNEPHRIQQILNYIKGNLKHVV
Experimental: (§1) Human HDAC Enzyme Inhibitor Fluor-De-Lys Assay
(§2) Recombinant human HDAC8 (BML-SE145-0100) and HDAC10 (BML-SE559-0050) enzymes, HDAC substrates BML-KI104 and BML-KI178, and HDAC developer solutions BML-KI105 and BML-KI176 were purchased from Enzo Life Sciences. […] HDAC inhibitor suberoylanilide hydroxamic acid (SAHA) was obtained from Indofine and trichostatin A (TSA) was obtained from Sigma-Aldrich.
(§3) The histone deacetylase activities of HDAC1, HDAC2, HDAC3, HDAC6, and HDAC8 were measured in modified FLUOR DE LYS assays in 384-well format. In this assay, HDAC enzymes are initially incubated with an ε-acetyl (or -trifluoroacetyl)-L-lysine-containing substrate with a C-terminal amide having aminomethylcoumarin as the amine component. HDACs cleave the ε-acetyl group, rendering the resulting product susceptible to AMC cleavage by trypsin. The released AMC is then detected by its fluorescence.
(§4) The HDAC3/SMRT assay employed buffer B, consisting of 20 mM HEPES, pH 8.0, 1 mM MgCl2, 50 mM NaCl, 2.7 mM KCl, 0.05% BSA, 0.005% Tween 20, and 10 μM IP4. […] The HDAC8 assay employed buffer D, consisting of 20 mM HEPES, pH 8.0, 1 mM MgCl2, 100 mM NaCl, 20 mM KCl, 0.10% n-octyl-β-D-glucoside (Anatrace) and 0.05% BSA. All steps were performed at room temperature (23° C.). The assay was performed by pre-incubating serial dilutions of test compounds with the target HDAC prior to initiation with substrate. Each compound was titrated in a 10-point dose response, using a 1:3 fold dilution scheme, with 0.15 ul of solution added by ECH0555 to the plate, followed by the addition of 20 μl of the appropriate HDAC isoform diluted in appropriate assay buffer. […] Final conditions used for each assay were: 1. HDAC 1, 0.3 nM total enzyme, 20 μM substrate BML-KI104; 2. […] HDAC 3/SMRT, 0.3 nM total enzyme, 20 μM substrate BML-KI104; 4. […] The reactions were stopped and developed by addition of 30 ul of HDAC developer solution containing a saturating level of HDAC inhibitor as follows: 1.

HDAC6 = biological target: T2, HDAC6 (Homo sapiens, UniProt Q9UBN7); test: Human HDAC enzyme inhibitor Fluor-de-Lys assay, HDAC6; assay type: biochemical; conditions: HDAC6, Fluor-de-Lys assay
T2 sequence (Q9UBN7 1-1215): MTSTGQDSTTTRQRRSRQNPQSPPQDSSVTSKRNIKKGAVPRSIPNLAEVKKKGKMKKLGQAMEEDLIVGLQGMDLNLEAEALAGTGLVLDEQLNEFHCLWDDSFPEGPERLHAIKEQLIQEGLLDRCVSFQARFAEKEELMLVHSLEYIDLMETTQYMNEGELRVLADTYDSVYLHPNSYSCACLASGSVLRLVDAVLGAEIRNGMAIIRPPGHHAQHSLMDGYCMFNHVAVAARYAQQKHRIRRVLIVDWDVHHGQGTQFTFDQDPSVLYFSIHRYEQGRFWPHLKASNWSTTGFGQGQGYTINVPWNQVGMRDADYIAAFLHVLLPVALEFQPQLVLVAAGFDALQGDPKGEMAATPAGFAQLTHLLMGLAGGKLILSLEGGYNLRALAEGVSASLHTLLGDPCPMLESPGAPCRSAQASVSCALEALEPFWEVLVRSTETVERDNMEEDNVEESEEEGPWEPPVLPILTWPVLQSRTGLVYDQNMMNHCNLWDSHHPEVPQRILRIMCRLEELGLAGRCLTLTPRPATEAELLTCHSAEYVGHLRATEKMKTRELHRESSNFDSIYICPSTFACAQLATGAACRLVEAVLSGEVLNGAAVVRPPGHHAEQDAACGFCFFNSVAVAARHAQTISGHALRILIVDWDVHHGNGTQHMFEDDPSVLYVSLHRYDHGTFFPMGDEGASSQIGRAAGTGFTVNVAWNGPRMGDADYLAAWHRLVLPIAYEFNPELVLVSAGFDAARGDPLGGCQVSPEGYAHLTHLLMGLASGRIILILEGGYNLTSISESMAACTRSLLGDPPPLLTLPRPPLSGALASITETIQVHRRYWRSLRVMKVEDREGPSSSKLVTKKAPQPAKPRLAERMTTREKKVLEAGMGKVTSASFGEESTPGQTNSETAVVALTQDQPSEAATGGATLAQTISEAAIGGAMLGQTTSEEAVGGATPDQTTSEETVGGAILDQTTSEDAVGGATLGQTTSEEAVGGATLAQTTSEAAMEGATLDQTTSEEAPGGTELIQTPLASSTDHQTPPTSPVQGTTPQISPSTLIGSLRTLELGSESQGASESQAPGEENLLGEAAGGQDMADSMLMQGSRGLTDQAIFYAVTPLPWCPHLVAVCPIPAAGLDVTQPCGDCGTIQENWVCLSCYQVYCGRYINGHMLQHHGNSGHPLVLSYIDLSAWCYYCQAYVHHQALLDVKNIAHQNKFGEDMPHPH
Experimental: as §1, §2, §3, §4

[1] = Homo sapiens, Jurkat, read-out: Karn EC50 (nM) 0.1% NHS, 0.1% normal human serum
[2] = Homo sapiens, Jurkat, read-out: Karn EC50 (nM) 5% NHS, 5% normal human serum

Compound	EC50 (KARN cells (Jurkat 2C4); [1])	EC50 (KARN cells (Jurkat 2C4); [2])	IC50 (Recombinant human HDAC8)	IC50 (HDAC6)	EC50 (KARN cells (Jurkat 2C4); read-out: Karn EC50 (nM) 0.1% NHS, 0.1% normal human serum)	EC50 (KARN cells (Jurkat 2C4); read-out: Karn EC50 (nM) 5% NHS, 5% normal human serum)
CCC(=O)CCCCC[C@H](NC(=O)C1CCC2(CC1)CN(CC)C2)c1ncc(-c2cc3ccccc3nc2OC)[nH]1 [Compound 271]	154 nM	634 nM	1750 nM	464 nM		
CCC(=O)CCCCC[C@H](NC(=O)C1CC2(CCN(C)CC2)C1)c1ncc(-c2cc3ccccc3nc2OC)[nH]1 [Compound 277]	140 nM	708 nM	1920 nM	405 nM		
CCC(=O)CCCCC[C@H](NC(=O)C1CC2(CCN(CC)CC2)C1)c1ncc(-c2cc3ccccc3nc2OC)[nH]1 [Compound 278]	166 nM	1000 nM	980 nM	479 nM		
CCC(=O)CCCCC[C@H](NC(=O)C1CC2(C1)CN(CC)C2)c1ncc(-c2cc3ccccc3nc2OC)[nH]1 [Compound 279]	160 nM	860 nM	5120 nM	362 nM		
CCC(=O)CCCCC[C@H](NC(=O)[C@@H]1CC12CCCN(C)C2)c1ncc(-c2cc3ccccc3nc2OC)[nH]1 (some centres unmarked) [Compound 285]	257 nM	1010 nM	9190 nM	260 nM		
CCC(=O)CCCCC[C@H](NC(=O)[C@H]1CC12CCCN(C)C2)c1ncc(-c2cc3ccccc3nc2OC)[nH]1 (some centres unmarked) [Compound 286]	116 nM	406 nM	3870 nM	342 nM		
CCC(=O)CCCCC[C@H](NC(=O)[C@H]1CC12CCCN(C)C2)c1ncc(-c2cc3ccccc3nc2OC)[nH]1 (some centres unmarked) [Compound 287]			2780 nM	351 nM	81 nM	325 nM
CCC(=O)CCCCC[C@H](NC(=O)[C@H]1CC12CCN(CC)CC2)c1ncc(-c2cc3ccccc3nc2O)[nH]1 [Compound 291]	192 nM	295 nM	> 15000 nM	741 nM		
CCC(=O)CCCCC[C@H](NC(=O)[C@@H]1CC12CCN(CC)CC2)c1ncc(-c2cc3ccccc3[nH]c2=O)[nH]1 [Compound 292]	992 nM	1380 nM	> 4500 nM	> 1500 nM		
CCC(=O)CCCCC[C@H](NC(=O)[C@H]1CC12CCN(Cc1ccccc1)CC2)c1ncc(-c2cc3ccccc3nc2OC)[nH]1 [Compound 293]	75 nM	175 nM	8200 nM	727 nM		
CCC(=O)CCCCC[C@H](NC(=O)[C@H]1CC12CCN(Cc1cccnc1)CC2)c1ncc(-c2cc3ccccc3nc2OC)[nH]1 [Compound 294]	63 nM	277 nM	4920 nM	415 nM		
CCC(=O)CCCCC[C@H](NC(=O)[C@H]1CC12CCN(Cc1ccc(OC)cc1)CC2)c1ncc(-c2cc3ccccc3nc2OC)[nH]1 [Compound 295]	113 nM	180 nM	3230 nM	973 nM		
CCC(=O)CCCCC[C@H](NC(=O)C1CC2(C1)CN(C)C2)c1ncc(-c2cc3ccccc3nc2OC)[nH]1 [Compound 311]	131 nM	841 nM	2660 nM	385 nM		
CCC(=O)CCCCC[C@H](NC(=O)C1CC12CN(C)C2)c1ncc(-c2cc3ccccc3nc2OC)[nH]1 (some centres unmarked) [Compound 312]	155 nM	633 nM	2020 nM	299 nM		
